This is an account of results in patent US10894817B2, “Fatty acid modified urocortin-2 analogs for the treatment of diabetes and chronic kidney disease” (priority 2016, dated 2021).

For data set [1] the following is noted: rat, in vivo, sc, 150 nmol/kg.
Experimental: (§1) Plasma concentrations of compounds were determined by LC/MS methods. Each method measured the intact compound; peptide plus linked time extension. For each assay, the compound and an analog, used as an internal standard (IS), were extracted from 100% mouse, rat or monkey plasma (25 μl) using acetonitrile. Two distinct layers were formed upon centrifugation with the compound and the IS located in the supernatant layer. An aliquot of the supernatant (80 μl) was transferred to a Thermo Protein Precipitation Plate with water (150 μl) and formic acid (25 μl) followed by mixing. A final 31% acetonitrile in 10% formic acid sample (10 μl) was loaded onto a Supelco Analytical Discovery BIO Wide Pore C5-3 column (5 cm×1 mm, 3 μm). The column effluent was directed into a Thermo Q-Exactive mass spectrometer for detection and quantitation.
Male Sprague Dawley rats were administered a single subcutaneous dose (50 or 150 nmol/kg) of a compound described herein in 20 mM Tris-HCl Tris Buffer (pH 8) at a volume of 0.26 or 0.77 mL/kg.
Data set [2] can be described thus: Pharmacokinetics, single subcutaneous dose, monkeys. The conditions noted are these: for half-life: T1/2, male Cynomolgus monkeys.
In data set [3] the target is T1, human CRHR1 (Homo sapiens, UniProt P34998).
T1 construct: which expresses endogenous human CRHR1; host or cells: Y79 human retinoblastoma cells
T1 sequence (P34998 24-415): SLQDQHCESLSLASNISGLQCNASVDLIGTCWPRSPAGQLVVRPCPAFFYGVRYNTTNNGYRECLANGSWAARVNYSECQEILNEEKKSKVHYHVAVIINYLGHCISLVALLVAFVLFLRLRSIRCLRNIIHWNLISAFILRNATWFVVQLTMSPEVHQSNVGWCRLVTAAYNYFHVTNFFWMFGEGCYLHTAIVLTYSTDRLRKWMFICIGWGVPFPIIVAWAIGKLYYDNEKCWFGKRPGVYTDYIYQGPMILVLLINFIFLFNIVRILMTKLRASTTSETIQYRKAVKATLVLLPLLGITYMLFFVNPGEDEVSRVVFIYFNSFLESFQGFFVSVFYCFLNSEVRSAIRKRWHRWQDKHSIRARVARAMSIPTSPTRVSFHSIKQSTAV
In words: human CRHR1 cell-based cAMP assay (Y79 cells). The conditions noted are these: Y79 cells with endogenous human CRHR1, mean ± SEM of runs, read-out: hCRHR1 Average EC50. The procedure:
CRHR agonistic activity is measured in a cell-based cAMP assay. Serial dilutions of the test peptides are made in assay buffer containing Hank's Balanced Salt Solution (HBSS, without phenol red) supplemented with 20 mM HEPES and 0.05% lactalbumin enzymatic hydrolysate (LAH) (“assay buffer”). The highest concentration that is used starts from 1 μM in the human CRHR2b, whereas 100 μM starting concentration is used in the human CRHR1 assay. A one to three dilution of the test peptides is used in both assays.
The human Retinoblastoma cell line Y79 (ATCC #HTB-18), which expresses endogenous human CRHR1, is used in the human CRHR1 assay. The cells are grown in RPMI 1640 (Hyclone, #SH30255) containing 20% fetal bovine serum and 10 mM HEPES, in suspension culture. Cells are centrifuged to remove the culture media and washed once in HBSS supplemented with 20 mM HEPES. The cells are resuspended in the assay buffer and 20,000 cells are used per treatment in the human CRHR1 assay.
The cells are dispensed into Costar 96-well black polystyrene half area EIA/RIA plates (Corning Incorporated, Corning, N.Y.) followed by the addition of the diluted peptides, each at a volume of 20 μL. The agonist induced cAMP levels are detected using a HTRF cAMP Dynamic 2 kit (CisBio, Bedford, Mass.). After incubation at 37° C. for 30 min, the assay is stopped by cell lysis via the addition of 20 μL of d2-labeled cAMP and followed by 20 μL of cryptate-labeled anti-cAMP antibody, as described by the manufacturer. Cellular cAMP (as a result of agonist stimulation) competes with the d2-labeled cAMP for binding to the antibody. HTRF detection is performed on an Envision plate reader (Perkin Elmer Life and Analytical Sciences, Waltham, Mass.) by measuring ratiometric emission at 620 and 665 nm after excitation at 320 nm.
The data are converted to picomoles of cAMP using a standard curve obtained from the same assay performed with varying concentrations of unlabeled cAMP. Percent of the maximum activation of the cells is calculated using converted picomole cAMP data by comparing to the amount of cAMP produced by 1 μM human UCN2 for the human CRHR2b or 1 μM human UCN1 for the human CRHR1 assay. The data are analyzed using a Curve Fitting Tool to calculate ED50. Numeric values shown below in Table 1 represent the mean of multiple runs (number of runs shown in parentheses) following the mean value±SEM.

A short description of data set [4]: Pharmacokinetics, single subcutaneous dose, mice. The conditions noted are these: sc.
Experimental: as §1
Male CD-1 mice were administered a single subcutaneous dose (350, 386 or 388 nmol/kg) of a compound described herein in 20 mM Tris-HCl Tris Buffer (pH 7 or 8) at a volume of 0.05 or 0.06 mL/animal. Blood was collected at 6, 12, 24, 48, 72, 96, 120 and 168 hours postdose for pharmacokinetic characterization (101).
Where [5] appears, read: male Cynomolgus monkeys, single 96.4 nmol/kg s.c., individual animal.
Setting [6] is: male, cynomolgus monkey, plasma, sc, 96.4 nmol/kg.
The mark [7] stands for this setting: male, CD-1, mouse, plasma, 386 nmol/kg.
[8] abbreviates: male Cynomolgus monkeys, single 50 nmol/kg s.c., individual animal.
Where [9] appears, read: male, cynomolgus monkey, plasma, sc, 50 nmol/kg.
Setting [10] is: male, CD-1, mouse, plasma, 350 nmol/kg.

Each structure is given as a SMILES string. Values joined by “and” are separate entries in the source; they are usually repeats but may differ in a detail not shown here. Identical values can stand only once. Like-named read-outs stand apart in the source and are kept apart here. Starred links: 1 amine or outer side, 2 acyl side, 3 side chain; linkers in the order of their positions; H or OH if unused. Non-standard residues stand in square brackets, D forms with d. Residues, ends and D or L forms follow the SMILES beside them. Groups on a side chain read outwards from the residue. *: point of attachment. C20 diacid = O=C(O)CCCCCCCCCCCCCCCCCCC(=O)*; C18 diacid = O=C(O)CCCCCCCCCCCCCCCCC(=O)*; γGlu = O=C(O)[C@H](CCC(=O)[*:2])N[*:1]; NMeI = CC[C@H](C)[C@H](NC)C(=O)O; AEEA = NCCOCCOCC(=O)O Where only a bound is given, the exact number is not on record here.

Take `CC[C@H](C)[C@H](NC(C)=O)C(=O)N[C@H](C(=O)N[C@@H](CC(C)C)C(=O)N[C@@H](CO)C(=O)N[C@@H](CC(C)C)C(=O)N[C@@H](CC(=O)O)C(=O)N[C@H](C(=O)N1CCC[C@H]1C(=O)N[C@H](C(=O)NCC(=O)N[C@@H](CC(C)C)C(=O)N[C@@H](CC(C)C)C(=O)N[C@@H](CCC(N)=O)C(=O)N[C@H](C(=O)N[C@@H](CC(C)C)C(=O)N[C@@H](CC(C)C)C(=O)N[C@@H](CCC(=O)O)C(=O)N[C@@H](CCC(N)=O)C(=O)N[C@@H](CCC(=O)O)C(=O)N[C@@H](CCCCN)C(=O)N[C@@H](CCC(N)=O)C(=O)N[C@@H](CCC(=O)O)C(=O)N[C@@H](CCCCN)C(=O)N[C@@H](CCC(=O)O)C(=O)N[C@@H](CCCCN)C(=O)N[C@@H](CCC(N)=O)C(=O)N[C@@H](CCC(N)=O)C(=O)N[C@@H](C)C(=O)N[C@@H](CCCCNC(=O)COCCOCCNC(=O)COCCOCCNC(=O)CC[C@H](NC(=O)CC[C@H](NC(=O)CCCCCCCCCCCCCCCCCCC(=O)O)C(=O)O)C(=O)O)C(=O)N[C@H](C(=O)N[C@@H](CC(N)=O)C(=O)N[C@@H](C)C(=O)N[C@@H](CCC(N)=O)C(=O)N[C@H](C(=O)N[C@@H](CC(C)C)C(=O)N[C@@H](C)C(=O)N[C@@H](CCC(N)=O)C(=O)N[C@H](C(N)=O)C(C)C)[C@@H](C)CC)[C@@H](C)O)[C@@H](C)CC)[C@@H](C)CC)C(C)C)C(C)C` [Example 2] (Ac-IVLSLDVPIGLLQILLEQEKQEKEKQQAK([AEEA-AEEA-γGlu-γGlu-C20 diacid])TNAQILAQV-NH2): the apparent clearance CL/F in data set [1] (CL/F) was 113 mL/day/kg. The compound also showed a half-life in data set [1] (T1/2) of 34 h. Also, the time of peak concentration (Tmax) worked out at 36 h in data set [2] (cynomolgus monkey, in vivo, sc, 96.4 nmol/kg, Tmax, male Cynomolgus monkeys, single 96.4 nmol/kg s.c., Mean); 24 h in data set [2] (cynomolgus monkey, in vivo, sc, 96.4 nmol/kg, Tmax, male Cynomolgus monkeys, single 96.4 nmol/kg s.c., individual animal); 48 h in data set [2] (setting [5]); 12 h in data set [4] (mouse, in vivo, 386 nmol/kg). In addition, the area under the curve AUC(0-inf) was 237.954 µM·h and 245.711 µM·h in data set [2] (setting [5]); 242 µM·h in data set [2] (setting [6]); 46.5 µM·h in data set [4] (setting [7]). The Cmax is 1238 nM and 1699 nM in data set [2] (setting [5]); 1470 nM in data set [2] (setting [6]); 1150 nM in data set [4] (setting [7]). The EC50 in data set [3] was above 10 µM.

For the compound `CC[C@H](C)[C@H](NC)C(=O)N[C@H](C(=O)N[C@@H](CC(C)C)C(=O)N[C@@H](CO)C(=O)N[C@@H](CC(C)C)C(=O)N[C@@H](CC(=O)O)C(=O)N[C@H](C(=O)N1CCC[C@H]1C(=O)N[C@H](C(=O)NCC(=O)N[C@@H](CC(C)C)C(=O)N[C@@H](CC(C)C)C(=O)N[C@@H](CCC(N)=O)C(=O)N[C@H](C(=O)N[C@@H](CC(C)C)C(=O)N[C@@H](CC(C)C)C(=O)N[C@@H](CCC(=O)O)C(=O)N[C@@H](CCC(N)=O)C(=O)N[C@@H](CCC(=O)O)C(=O)N[C@@H](CCCCN)C(=O)N[C@@H](CCC(N)=O)C(=O)N[C@@H](CCC(=O)O)C(=O)N[C@@H](CCCCN)C(=O)N[C@@H](CCC(=O)O)C(=O)N[C@@H](CCCCN)C(=O)N[C@@H](CCC(N)=O)C(=O)N[C@@H](CCC(N)=O)C(=O)N[C@@H](C)C(=O)N[C@@H](CCCCNC(=O)COCCOCCNC(=O)COCCOCCNC(=O)CC[C@H](NC(=O)CC[C@H](NC(=O)CCCCCCCCCCCCCCCCC(=O)O)C(=O)O)C(=O)O)C(=O)N[C@H](C(=O)N[C@@H](CC(N)=O)C(=O)N[C@@H](C)C(=O)N[C@@H](CCC(N)=O)C(=O)N[C@H](C(=O)N[C@@H](CC(C)C)C(=O)N[C@@H](C)C(=O)N[C@@H](CCC(N)=O)C(=O)N[C@H](C(N)=O)C(C)C)[C@@H](C)CC)[C@@H](C)O)[C@@H](C)CC)[C@@H](C)CC)C(C)C)C(C)C` [Example 3] (H-[NMeI]VLSLDVPIGLLQILLEQEKQEKEKQQAK([AEEA-AEEA-γGlu-γGlu-C18 diacid])TNAQILAQV-NH2), the AUC(0-inf) is 69.88 µM·h and 58.414 µM·h in data set [2] (setting [8]); 64.1 µM·h in data set [2] (setting [9]); 35.5 µM·h in data set [4] (setting [10]). In addition, the apparent clearance CL/F in data set [2] (setting [8]) is 20.6 mL/day/kg; in data set [2] (male, cynomolgus monkey, plasma, sc, 50 nmol/kg, CL/F, male Cynomolgus monkeys, single 50 nmol/kg s.c., Mean), 19 mL/day/kg; in data set [2] (male, cynomolgus monkey, plasma, sc, 50 nmol/kg, CL/F, male Cynomolgus monkeys, single 50 nmol/kg s.c., individual animal) it was 17.3 mL/day/kg; in data set [4] (setting [10]) it was 238 mL/day/kg. For the same compound, the peak concentration (Cmax) is 441 nM and 432 nM in data set [2] (setting [8]); 437 nM in data set [2] (setting [9]); 1340 nM in data set [4] (setting [10]). In addition, the T1/2 in data set [2] (setting [8]) was found to be 70 h. Further, the half-life in data set [2] (male, cynomolgus monkey, plasma, sc, 50 nmol/kg, single 50 nmol/kg s.c., Mean) is 85 h; in data set [2] (male, cynomolgus monkey, plasma, sc, 50 nmol/kg, single 50 nmol/kg s.c., individual animal) it was 101 h; in data set [4] (setting [10]) it was 14 h. Moreover, the time of peak concentration (Tmax) in data set [2] (male, cynomolgus monkey, plasma, sc, 50 nmol/kg, Tmax, male Cynomolgus monkeys, single 50 nmol/kg s.c., Mean) amounted to 36 h; in data set [2] (male, cynomolgus monkey, plasma, sc, 50 nmol/kg, Tmax, male Cynomolgus monkeys, single 50 nmol/kg s.c., individual animal), 48 h; in data set [4] (setting [10]), 12 h. Further, the EC50 in data set [3] was above 100 µM.

As a reminder, the CL/F is clearance divided by bioavailability, as obtained after extravascular dosing. A word on the half-life: it is how long it takes for the measured level to halve. Higher therefore signals slow decline. As usually defined, the Tmax is the time from dosing to the highest level. A word on the AUC(0-inf): it is the area under the concentration-time curve extrapolated to infinity. High values mean more exposure, low ones less exposure. Usually Cmax stands for the highest concentration seen after dosing. The term EC50 denotes the midpoint of the concentration-response curve.
